Results reported in patent US20250019644A1, “Quantitatively Mapping Amino Acid Properties (QMAP) Cell Culture Media” (UNIVERSITY OF IOWA RESEARCH FOUNDATION, priority 2023, published 2025).

Assays:
HCT116 cells = test: Screen 2: metabolic profiling with unlabeled amino acids (LC-MS); format: cell-based, human; conditions: 0.5, 1, 2 mM, dose-dependent, 6 hours
Experimental: Media was changed to QMAP plus individual amino acid treatments at the start of the experiment. 200 mM amino acid stocks were used to make the QMAP+individual amino acid treatment medias that were placed in the tissue culture incubator for 30-45 minutes prior to the start of the dosing for equilibration of media bicarbonate with incubator CO2. For metabolomic profiling experiments, cells were treated with additional amino acid doses of 0.5, 1 and 2 mM, and 1 mM was used for stable isotope tracing experiments. To minimize systematic error, each amino acid dose was added as a batch (20 amino acids+vehicle control) such that each well of each plate contained a different amino acid. The process was repeated for the other two concentrations of amino acids on the next plates to make set. This was repeated four more times to achieve the sample size of 5 replicates for each of the 3 doses of amino acids. Each plate was then incubated for 6 hours in the tissue culture incubator before being rapidly washed twice with sterile water and snap frozen on liquid nitrogen before being stored at −80° C. The next day, the plates were lyophilized for 90 minutes and then stored at −80° C.
Extraction buffer was prepared by adding 2:2:1 methanol: acetonitrile: water. For profiling, the following internal standards (Cambridge Isotope Laboratories) were added at 1 μg/mL each: L-Valine-D8, L-Aspartate (^13C4, D3, ^15N) and Succinate (13C4D4). 6-well plates were removed from storage at −80° C. and 1 ml of ice-cold extraction buffer was added. Plates were incubated at −20° C. for 5 minutes, scraped, transferred to microcentrifuge tubes and frozen in liquid nitrogen. Tubes were then placed into a sonicating water bath for 10 minutes and rotated at −20° C. for 1 hour before being centrifuged at 4° C. for 10 minutes at 21,000×g. […] of extract was dried down completely using a speed-vacuum (˜90 min), dissolved in […] of acetonitrile: water (1:1), vortexed for 10 min, and stored overnight at −20° C. to allow protein precipitation. Samples were then centrifuged at 4° C. for 10 minutes at 21,000×g and the supernatants were transferred into autosampler vials for analysis. For the QCs, […] of each extract was pooled, at the step prior to drying down, mixed and dried in […] amounts alongside the samples. Once dried, QCs were processed with the samples but recombined prior to being aliquoted into autosampler vials. All samples were then frozen at −80° C., and only one set of samples, which included a QC aliquot, was thawed, vortexed and placed into the instrument.
The sheath gas flow was set to 40 units, the auxiliary gas flow was set to 15 units and the sweep gas flow was set to 1 unit. […] For tracing, […] of sample was injected twice in either positive or negative mode to maximize detection efficiency and minimize metabolite crowding using the Sim-mode.
LC-MS data was processed using the Thermo Scientific TraceFinder 5.1 software.
The three cell lines were then treated with 0.5, 1, and 2 mM of individual, unlabeled amino acids, and metabolic profiling was performed to determine how individual amino acids quantitatively altered metabolite abundance (Screen 2).

3T3-L1 = test: CellTiter-Glo Luminescent Cell Viability Assay; format: cell-based, mouse; conditions: 2 mM, 24 hours, DMEM
Experimental: (§1) HT29, 293T, U2OS, and 3T3-LI cells were plated on an opaque 96-well plate in 1:1 DMEM. […] At the appropriate time point, 100 μl of CellTiter-Glo reagent (Promega #G7570) was added to each well. The plate was gently mixed for 2 minutes to induce lysis, incubated at room-temperature for 10 minutes, and then luminescence was measured.
(§2) To test whether tryptophan inhibition of growth applied to other cell lines and persisted in conventional cell culture media, two human cancer cell lines (HT29, U2OS), a transformed human embryonic kidney cell line (293T), and a mouse, fibroblast-like cell line (3T3-L1) were grown in DMEM for 24 hours and then treated with 2 mM tryptophan or vehicle. After 24 hours, cells were assayed by CellTiter-Glo, which indicates cell viability by measuring ATP production.

U2OS = test: CellTiter-Glo Luminescent Cell Viability Assay; format: cell-based, human; conditions: 2 mM, 24 hours, DMEM
Experimental: as §1
as §2, with “After 24 hours, cells were assayed by CellTiter-Glo, which indicates cell viability by measuring ATP production.” left out

N[C@@H](Cc1c[nH]c2ccccc12)C(=O)O [tryptophan, L-tryptophan]
distal TCA cycle metabolite levels (alpha-ketoglutarate to malate) (HCT116 cells): decreased | glutamine levels (HCT116 cells): increased | cell viability compared to vehicle (3T3-L1): significant decreases | cell viability compared to vehicle (U2OS): significant decreases
